# Measured values from US4753965A, “Method of treating multiple sclerosis with chalcone derivatives” (Merrell Dow Pharmaceuticals, Inc., priority 1987, dated 1988).
# Tests used:
# [1] = system: Experimental Allergic Encephalomyelitis (EAE); assay: Experimental Allergic Encephalomyelitis (EAE) in rats; assay type: in vivo, Lewis strain rats
# Experimental: Effect of α-methyl-4-dimethylamino-2',5'-dimethoxychalcone on Experimental Allergic Encephalomyelitis (EAE) in Rats
# EAE was induced in rats as described by Rosenthal and Nagra, Proc. Soc.
# Lewis strain rats ranging in weight
# from 100-200 g were sensitized with encephalitogenic emulsion consisting
# of homogenized spinal cord in complete Freund's adjuvant. The test
# compound and hydrocortisone (HC) were administered in
# polyvinylpyrrolidone vehicle. The test compound was administered i.p.
# once daily from day 1 through day 10. HC was administered s.c. once
# every other day from day 1 through day 10. The incidence of paralysis
# was recorded and mean paralysis time was calculated.
# HeLa cells = assay: Growth inhibition of HeLa cells; assay type: cell-based; conditions: Homo sapiens, 72 hours
# Experimental: The compounds of structure 1 inhibit the polymerization of tubulin, and thus the formation of microtubules, that ubiquitous substance of eukaryotic cells which serves a variety of functions, most importantly, to separate the duplicated sets of chromosomes during cell mitosis.
# For growth inhibition studies, exponentially growing HeLa cells
# were incubated at a density of 1 × 10^5 cells/35 mm dish with
# number of dilutions of the test compound in the medium. The
# plates were incubated at 37° C. in a CO2 incubation. At the
# of 72 hours the cells were collected by trypinization and
# counted and the IC50 (.upsilon.g/ml) was determined.
# [2] = 6.25 mg/kg i.p. once daily day 1 through day 10
# [3] = 12.5 mg/kg i.p. once daily day 1 through day 10
# [4] = 25.0 mg/kg i.p. once daily day 1 through day 10
SMILES,number paralyzed/total number of animals ([1]; 25.0 mg/kg s.c. once every other day day 1 through day 10),IC50 (HeLa cells) [µg/mL],"PARALYSIS TIME (Mean ± S.E.) [1, 2] [days]","PERCENT INCIDENCE OF PARALYSIS [1, 2] [%]","number paralyzed/total number of animals [1, 2]","PARALYSIS TIME (Mean ± S.E.) [1, 3] [days]","PERCENT INCIDENCE OF PARALYSIS [1, 3] [%]","number paralyzed/total number of animals [1, 3]","PARALYSIS TIME (Mean ± S.E.) [1, 4] [days]","PERCENT INCIDENCE OF PARALYSIS [1, 4] [%]","number paralyzed/total number of animals [1, 4]"
"C[C@]12CCC(=O)C=C1CC[C@@H]1[C@@H]2[C@@H](O)C[C@@]2(C)[C@H]1CC[C@]2(O)C(=O)CO [HYDROCORTISONE, hydrocortisone, reference compound]",14/19,,,,,,,,,,
"COc1ccc(OC)c(C(=O)C(C)=Cc2ccc(N(C)C)cc2)c1 [COMPOUND, 1-(2,5-dimethoxyphenyl)-3-[4-(dimethylamino)phenyl]-2-methyl-2-propen-1-one]",,0.015,9.7 ± 0.36,90,9/10,9.4 ± 0.26,80,8/10,10.8 ± 0.54,40,7/18
